Data from US10759865B2, “Treatment of diabetes mellitus” (priority 2017, dated 2020).

System: patient diagnosed with IDDM
Experiment: treatment of a IDDM patient, blood IDDM markers over time
Format: in vivo, human
Description: A patient diagnosed with IDDM was treated with 8 units of exogenous long-acting insulin per day (administered in the evening) and 1 unit of short-acting insulin per 6 grams of carbohydrate food intake (administered before each meal).
Specific stimulation high-carb diet was introduced occasionally to monitor the patient's pancreatic ability to respond to the glycemic demands.
Each IVIG dose was administered in one continuous infusion session. From week 16 to week 42, the patient was also treated with alpha one antitrypsin.
Throughout the patient's treatment, the patient's blood was drawn at the time points indicated in Tables 1-2 below, and analyzed by established testing laboratories with respect to standard IDDM blood parameters (see Tables 1-2, top row of each table listing the markers assayed; the numerical values in parenthesis after some of the markers indicate normal reference levels).
The patient was dosed at 750 mg intravenously on weeks 87, 88, 89 and 90.
Tables 1 and 2 describe the same treatment but include data points with respect to different markers tested.

C[C@@H]1CCN(C(=O)CC#N)C[C@@H]1N(C)c1ncnc2[nH]ccc12 [Tofacitinib]
overall weight and muscle mass (about 10 months post initiation of tofacitinib treatment): gained overall weight and muscle mass | auto-antibody blood titers (about 10 months post initiation, tofacitinib before IVIG): no further change | combination effect of tofacitinib treatment and IVIG treatment (human, in vivo): synergistic effect | need for short-acting insulin (starting three days post initiation, 5 mg twice-daily (free base)): did not receive any short-acting insulin | need for exogenous insulin (starting three weeks post initiation, 5 mg twice-daily (free base)): did not receive any exogenous insulin | pancreatic islet-cell auto-antibodies and anti-insulin auto-antibodies (upon treatment with tofacitinib (Table 1)): reduction
